According to US8055452B2, “Identification, monitoring and treatment of disease and characterization of biological condition using gene expression profiles” (Life Technologies Corporation, priority 2001, dated 2011):

System: Inflammation 48A and 48B loci; bacterial Gene Expression Panel of 24 genes
Test: Whole blood gene expression response to infectious agents or their products
Type: cell-based
Details: E. coli filtrate with added polymyxin B vs filtrate alone
From the text: FIGS. 27 through 41 illustrate the use of gene expression panels in early identification and monitoring of infectious disease. These figures plot the response, in expression products of the genes indicated, in whole blood, to the administration of various infectious agents or products associated with infectious agents. In each figure, the gene expression levels are “calibrated”, as that term is defined herein, in relation to baseline expression levels determined with respect to the whole blood prior to administration of the relevant infectious agent. […] The concentration change is shown ratiometrically, and the baseline level of 1 for a particular gene locus corresponds to an expression level for such locus that is the same, monitored at the relevant time after addition of the infectious agent or other stimulus, as the expression level before addition of the stimulus. […]
FIG. 27 uses a novel bacterial Gene Expression Panel of 24 genes, developed to discriminate various bacterial conditions in a host biological system. […] The final concentration immediately after administration of the stimulus was 100 ng/mL, and the ratiometric changes in expression, in relation to pre-administration levels, were monitored for each stimulus 2 and 6 hours after administration. […]
The responses were monitored at 2, 6, and 24 hours after administration. […]

polymyxin B
effect on the response of IL1B locus to E. coli filtrate: did not affect the response
